Experimental data: patent US6838560B1, “Process for manufacturing morpholino-nucleotides, and use thereof for the analysis of and labelling of nucleic acid sequences” (priority 1999, dated 2005)

Legend:
Format in all cases: biochemical
[1] = biological target: T1, Klenow fragment (Escherichia coli, UniProt P00582); assay: Template-dependent 3' labelling / primer A extension, polyacrylamide gel; details: for enzymatic incorporation at 3' end of primer A: MATPP 400, 200, 50 μM, MATPPF 2.5 mM, 400, 200, 50 μM, 37° C., 10 minutes; for interruption of chain elongation after incorporation: with dGTP and dTTP (solution 2P), FIG. 4
T1 construct: the Klenow fragment (Boehringer Mannheim); purchased Boehringer Mannheim
Method: (§1) Use of morpholino A putrescine (MATPP) and morpholino A fluorescein (MATPPF) for the template-dependent 3′ labelling of DNA fragments; test of enzymatic incorporation of these compounds by three polymerases (Taq, Klenow, Klenow Exo Free) and a reverse transcriptase.
(§2) These two nucleoside triphosphate derivatives are tested in enzymatic incorporation to label an oligonucleotide 13 bases long at its 3′ end. This labelling is referred to as “template-dependent” since the enzymes used need the complementary strand to extend the oligonucleotide according to the Watson & Crick rules. Sequence A (17870 pmol/mL) studied and also its complementary target C (16128 pmol/mL) are given in the figure below: • Target C: 3′-TGCCAACCAACCCCACCTCAACCTCTG-5′ (SEQ ID NO: 7) • Primer A: 5′-ACG GTT GGT TGG G (13 bp) (SEQ ID NO: 8) • Expected fragments: 5′-ACG GTT TGG GGT GGA (18 bp) (SEQ ID NO: 9) • and lengths (bp): 5′-ACGGTTGGTTGGGGTGGAGTTGGA (24 bp)(SEQ ID NO: 10) 5′-ACGGTTGGTTGGGGTGGAGTTGGAGA (26 bp) (SEQ ID NO: 11) 5′-ACGGTTGGTTGGGGTGGAGTTGGAGAC (27 bp) (SEQ ID NO: 12)
(§3) Three enzymes are used for this labelling: Taq DNA polymerase (Boehringer Mannheim), the Klenow fragment (Boehringer Mannheim) and the Klenow exonuclease-free polymerase (Amersham Life Science). The primer is labelled at its 5′ end by incorporation of ^32P phosphate with the “Ready to go” T4 Polynucleotide Kinase kit (Pharmacia Biotech). The radiolabelled primer is noted A*.
(§4) The reaction buffers for the three enzymes are prepared for 10 reactions:
(§5) The enzymes are then diluted in the following manner, for 10 reactions: • Taq (5U/μL): 10×0.1 μL of Taq+10×15.5 μL of H2O • Klenow (20U/μL): 10×0.1 μL of Klenow+10×15.5 μL of H2O • Klenow Exo Free (5U/μL): 10×0.1 μL of Klenow Exo Free+10×15.5 μL of H2O.
(§6) Solutions containing the normal nucleoside triphosphates are also prepared: • Solution “2P” composed of a mixture of dGTP and dTTP each at 0.1 mM • Solution “4P” composed of a mixture of dATP, dCTP, dGTP and dTTP each at 0.1 mM
(§7) The implementation reactions are described in Table 14 below:
(§8) The morpholino A putrescine is thus tested at three concentrations: 400, 200 and 50 μM, while the morpholino A fluorescein is reacted at 2.5 mM, 400, 200 and 50 μM.
(§9) Before adding the enzyme, the mixture is denatured at 94° C. for 5 minutes. It is then left to return to ambient temperature in order for the hybridization to take place. The elongation is carried out at 70° C. for the Taq and at 37° C. for the two Klenow fragments, and for 10 minutes. Finally, the medium is again denatured with a formamide solution and heating at 90° C. for 5 minutes, after which it is placed on a polyacrylamide gel. The separation is carried out by electrophoresis at 2000 V. The gel is read using a Phosphorimager; the results obtained are given in FIG. 4.
(§10) In this figure, the lanes 1 serve as migration control for the labelled oligonucleotide A. This oligonucleotide has a length of 13 bases (13-mer). Lanes 2, 3 and 4 allow the elongation of the oligonucleotide A and the incorporation of the morpholino A putrescine to be monitored. Under these conditions, only the nucleotides dGTP and dTTP (solution “2P”) were added and can be used by the enzyme to carry out the extention of the primer. The presence of the morpholino A putrescine in the reaction medium allows its incorporation at the level of base 18. A control was carried out, placing in the medium only the “2P” mixture; in this case, the enzyme continues its extension up to the 17th base since it has no adenosine derivative to continue its polymerization. […] Reactions 5 to 8 correspond to the same reactions with morpholino A fluorescein. […] It is noted, however, for the two Klenow fragments, that there was occasionally incorporation of another base (G or T) in place of the morpholino derivative. Specifically, in these cases, elongation products corresponding to the 18-mer and 24-mer are found. […]

[2] = biological target: T2, Taq DNA polymerase (Thermus aquaticus, UniProt P19821); assay: as above; details: for enzymatic incorporation at 3' end of primer A: MATPP 400, 200, 50 μM, MATPPF 2.5 mM, 400, 200, 50 μM, 70° C., 10 minutes; for interruption of chain elongation after incorporation: with dGTP and dTTP (solution 2P), FIG. 4
T2 construct: purchased Boehringer Mannheim
Method: as §1, §2, §3, §4, §5, §6, §7, §8, §9, §10

[3] = biological target: T3, Klenow exonuclease-free polymerase (Escherichia coli, UniProt P00582, D355A/E357A); assay: as above; details: for enzymatic incorporation at 3' end of primer A: MATPP 400, 200, 50 μM, MATPPF 2.5 mM, 400, 200, 50 μM, 37° C., 10 minutes; for interruption of chain elongation after incorporation: with dGTP and dTTP (solution 2P), FIG. 4
T3 construct: purchased Amersham Life Science
Method: as §1, §2, §3, §4, §5, §6, §7, §8, §9, §10

[4] = biological target: T4, Taq polymerase (Thermus aquaticus, UniProt P19821); assay: Sequencing reaction with fluorescent primers on Bluescript plasmid DNA (Example 13); details: 200 and 500 μM; Bluescript plasmid template; FIG. 1
T4 construct: purchased Perkin-Elmer
Method: The morpholino T glycine 4 of Example 2 is tested in sequence reaction with fluorescent primers (Applied Biosystems, Perkin-Elmer, Foster City, Calif., USA) on a standard template which is a Bluescript plasmid DNA (Stratagene, La Jolla, Calif., USA). The enzyme used is a Taq polymerase (Perkin-Elmer), which is used in its buffer (TACS buffer, Perkin-Elmer).
Two reactions are carried out with morpholino T glycine at 200 and 500 μM (Table 4), and also two control reactions (Table 5) with dideoxynucleotide T (Boehringer).
The reaction medium, of a total volume of 10 μL, contains 125 ng of template, 1.25 pmol of fluorescent primer and the other constituents given in Tables 4 and 5. The medium is subjected to heat cycles in order to produce in number molecules of newly formed DNA strands. […]
The products of the sequencing reactions are detected by fluorescence. The results obtained are represented in the attached figure which illustrates the detection of the products in the sequencing gel analysed by the Perkin-Elmer Analysis software, version 3.0.
For each test, the primers are identifiable by their fluorescence properties, the ROX label (red) for the control reaction 250 μm dideoxythymidine triphosphate (dashed-curve) and the label JOE (green) for the reaction concerning the 200 μm morpholino T glycine (solid-line curve).

[5] = biological target: T5, Taq polyerase (Thermus aquaticus, UniProt P19821); assay: Sequencing reaction with fluorescent primers on Bluescript plasmid DNA (Example 14); details: fluorescence detection of the sequencing products
T5 construct: purchased Perkin-Elmer
Method: Morpholino A putrescine (MATPP) 7 and morpholino A fluorescein (MATPPF) 12 are tested in squencing reaction with fluorescent primers (Applied Biosystems, Perkin-Elmer, Foster City, Calif., USA) on a standard template which is a Bluescript plasmid DNA (Stratagene, La Jolla, Calif., USA). The enzyme used is a Taq polyerase (Perkin-Elmer) which is used in its buffer (Thermo Sequenase buffer, Amersham Life Science).
Three sequencing reactions are carried out with MATPP at 100, 200 and 400 μM and four sequencing reactions are carried out with MATPPF at 200, 500, 1000 and 5000 μM, along with control reactions with the dideoxynucleotide ddATP at a concentration of 250 μM (Boehringer).
The reaction medium, of a total volume of 10 μL, contains 125 ng of template, 1.25 pmol of fluorescent primer and the other constituents as described in the tables.
The medium is subjected to heating cycles in order to produce in number molecules of newly formed DNA strands. […]
The amplification products are purified on a Sephadex G50 column. The products of each sequencing reaction are mixed with the products of a control reaction and analysed by electrophoresis. […]

T1 sequence (P00582 324-928): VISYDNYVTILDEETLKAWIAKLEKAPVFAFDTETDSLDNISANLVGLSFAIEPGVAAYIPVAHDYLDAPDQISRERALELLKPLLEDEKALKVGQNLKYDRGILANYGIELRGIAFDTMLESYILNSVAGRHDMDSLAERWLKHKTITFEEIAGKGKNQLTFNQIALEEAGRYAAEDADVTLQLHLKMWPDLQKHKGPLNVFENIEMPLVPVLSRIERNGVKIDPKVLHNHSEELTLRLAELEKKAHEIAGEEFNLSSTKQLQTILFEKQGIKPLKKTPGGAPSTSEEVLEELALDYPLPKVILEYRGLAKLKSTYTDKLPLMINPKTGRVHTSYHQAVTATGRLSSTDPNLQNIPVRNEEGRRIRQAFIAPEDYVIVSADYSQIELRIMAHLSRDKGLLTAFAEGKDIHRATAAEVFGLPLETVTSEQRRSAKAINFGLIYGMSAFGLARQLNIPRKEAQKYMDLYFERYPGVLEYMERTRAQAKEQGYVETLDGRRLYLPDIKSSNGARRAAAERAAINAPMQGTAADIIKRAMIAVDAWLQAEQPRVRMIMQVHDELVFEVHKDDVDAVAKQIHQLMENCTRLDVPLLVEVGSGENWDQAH
T3 sequence (P00582 324-928 D355A/E357A): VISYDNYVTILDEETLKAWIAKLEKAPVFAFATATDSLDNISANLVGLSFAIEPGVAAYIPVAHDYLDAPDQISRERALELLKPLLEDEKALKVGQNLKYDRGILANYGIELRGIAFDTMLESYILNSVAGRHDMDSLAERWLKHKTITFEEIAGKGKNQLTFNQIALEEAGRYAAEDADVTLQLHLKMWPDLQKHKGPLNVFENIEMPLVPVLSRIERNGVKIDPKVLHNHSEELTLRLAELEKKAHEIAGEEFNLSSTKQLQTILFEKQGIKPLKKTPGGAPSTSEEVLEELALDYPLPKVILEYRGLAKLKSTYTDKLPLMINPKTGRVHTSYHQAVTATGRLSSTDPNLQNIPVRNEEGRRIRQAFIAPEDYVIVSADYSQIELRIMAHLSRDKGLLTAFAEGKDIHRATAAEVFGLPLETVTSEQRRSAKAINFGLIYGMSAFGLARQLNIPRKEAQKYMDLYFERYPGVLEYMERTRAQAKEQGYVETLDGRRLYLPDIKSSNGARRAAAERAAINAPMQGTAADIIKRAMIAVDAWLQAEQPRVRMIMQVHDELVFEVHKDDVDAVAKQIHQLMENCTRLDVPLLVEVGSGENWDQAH
T2 sequence (P19821 whole entry): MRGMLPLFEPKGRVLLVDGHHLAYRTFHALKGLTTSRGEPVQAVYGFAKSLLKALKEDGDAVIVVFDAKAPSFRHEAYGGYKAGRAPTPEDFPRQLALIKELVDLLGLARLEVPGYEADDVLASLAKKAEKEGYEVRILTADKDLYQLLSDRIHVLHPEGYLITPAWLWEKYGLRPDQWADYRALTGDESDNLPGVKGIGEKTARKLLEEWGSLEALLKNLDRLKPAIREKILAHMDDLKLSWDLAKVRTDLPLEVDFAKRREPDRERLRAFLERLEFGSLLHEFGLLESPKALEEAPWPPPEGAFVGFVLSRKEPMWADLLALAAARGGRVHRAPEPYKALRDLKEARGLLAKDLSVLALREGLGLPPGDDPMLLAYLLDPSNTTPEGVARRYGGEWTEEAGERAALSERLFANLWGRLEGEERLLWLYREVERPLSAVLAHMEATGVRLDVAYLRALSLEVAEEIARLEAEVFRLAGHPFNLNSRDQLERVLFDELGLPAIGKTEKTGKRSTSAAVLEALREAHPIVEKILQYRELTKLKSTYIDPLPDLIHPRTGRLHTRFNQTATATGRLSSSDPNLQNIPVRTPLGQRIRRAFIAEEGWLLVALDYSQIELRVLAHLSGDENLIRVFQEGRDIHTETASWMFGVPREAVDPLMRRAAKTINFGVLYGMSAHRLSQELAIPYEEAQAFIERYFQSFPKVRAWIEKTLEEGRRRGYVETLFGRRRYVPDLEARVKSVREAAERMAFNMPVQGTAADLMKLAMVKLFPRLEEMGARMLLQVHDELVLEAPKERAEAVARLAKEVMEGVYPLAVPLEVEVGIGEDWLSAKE
T4 sequence (P19821 whole entry): as above
T5 sequence (P19821 whole entry): as above

Compound | enzymatic incorporation at 3' end of primer A [1] | interruption of chain elongation after incorporation [1] | enzymatic incorporation at 3' end of primer A [2] | interruption of chain elongation after incorporation [2] | enzymatic incorporation at 3' end of primer A [3] | interruption of chain elongation after incorporation [3] | action as chain terminator in sequencing reaction [4] | incorporation by the Taq polymerase in sequencing reaction [4] | detection of sequencing reaction products [5]
4-(aminobutyl)-2-(adenosin-9-yl)-6-(hydroxymethyl)morpholine 6-triphosphate [morpholino A putrescine] | incorporate | interruption of the elongation of the chain | incorporate | interruption of the elongation of the chain | incorporate | interruption of the elongation of the chain |  |  | 
4-(carboxymethyl)-2-(thymidin-1-yl)-6-(hydroxymethyl)morpholine 6-triphosphate [morpholino T glycine] |  |  |  |  |  |  | acts correctly as a chain terminator | correctly incorporated in a base-specific manner | 
Nc1ncnc2c1ncn2C1CN(CCCCNC(=S)Nc2ccc3c(c2)C(=O)OC32c3ccc(O)cc3Oc3cc(O)ccc32)CC(COP(=O)(O)OP(=O)(O)OP(=O)(O)O)O1 (stereo not drawn) [morpholino A fluorescein] | incorporate | stops the polymerization of the complementary strand | incorporate | stops the polymerization of the complementary strand | incorporate | stops the polymerization of the complementary strand |  |  | detected by means of the fluorophore borne by this derivative
